The source of these data is ChEMBL document CHEMBL6177915, “Design, synthesis and mechanistic insights into triclosan derived dimers as potential anti-plasmodials” (RSC Med Chem, 2025).

The test system of data set [1] is Plasmodium falciparum. Kind of data set: Antiplasmodial activity against Plasmodium falciparum W2. It is filed as functional, organism-based.
Data set [2] is described as follows: Selectivity index, ratio of CC50 for Cytotoxicity against African green monkey Vero E6 cells to IC50 for Antiplasmodial activity against CQ-resistant Plasmodium falciparum W2. The following applies: read-out: Ratio CC50/IC50. The data set is classed as toxicity, cell-based.
The nature of data set [3]: Cytotoxicity against African green monkey Vero E6 cells assessed as cell viability measured after 48 hrs incubation by MTT assay. It is filed as toxicity, cell-based, Vero C1008. The following applies: chlorocebus sabaeus. (In general: Formazan colour is commonly taken as a measure of viable cells.)
Data set [4] deals with Plasmodium falciparum. The data set is described as follows: Antiplasmodial activity against CQ-resistant Plasmodium falciparum W2 assessed as inhibition of parasite growth incubated for 72 hrs by HRP2 based ELISA. The data set is classed as functional, organism-based. The following applies: W2, 72 h. For orientation: An ELISA detects its analyte on a solid surface through an enzyme-linked reagent.

The subject of data set [5] is Plasmodium falciparum. Kind of data set: Resistance index, ratio of IC50 for antiplasmodial activity against CQ-resistant Plasmodium falciparum W2 to IC50 for antiplasmodial activity against CQ-susceptible Plasmodium falciparum 3D7. The data set is classed as functional.
In data set [6] the test system is Plasmodium falciparum. The data set is described as follows: Antiplasmodial activity against CQ-susceptible Plasmodium falciparum 3D7 assessed as inhibition of parasite growth incubated for 72 hrs by HRP2 based ELISA. The data set is classed as functional, organism-based. The following applies: 3D7, 72 h.
Data set [7] is described as follows: Inhibition of Plasmodium falciparum enoyl ACP reductase.
For data set [8], the system named is Heme. Kind of data set: Binding affinity to heme assessed as binding constant logK of the compound in HEPES buffer at pH 7.4.
Data set [9] concerns Heme. Kind of data set: Binding affinity to heme assessed as binding constant logK of the compound in MES buffer at pH 5.6.

pIC50: −log10 of the molar value.

For orientation: pIC50 means the IC50 on a negative log10 scale, so that one unit is a factor of ten. `O=C(N/N=C/c1ccc(OCc2cn(CCNc3ccnc4cc(Cl)ccc34)nn2)cc1)c1cnncn1` had a pIC50 in data set [1] of 6.59.
In general, CC50 refers to the concentration at which the toxic effect on the cells reaches its halfway point. Take `Oc1cc(Cl)c(NCc2cn(CCCCCCOc3cc(Cl)ccc3Oc3ccc(Cl)cc3Cl)nn2)cc1Oc1ccc(Cl)cc1Cl`: in data set [2], the selectivity ratio is 2.6. Also, the CC50 at 48 h in data set [3] is 66.3 µM. Besides, the pIC50 was 4.59 in [4] and 4.61 in [6]. Further, the Ratio IC50 in data set [5] was 1.05.
In the same order, the values of `O=[N+]([O-])c1cc(Oc2ccc(Cl)cc2Cl)c(OCc2cn(CCCOc3cc(Cl)ccc3Oc3ccc(Cl)cc3Cl)nn2)cc1Cl` are 3.2, 81.9 µM, 4.59, 4.65 and 1.14.
In the same order, the values of `Clc1ccc(Oc2ccc(Cl)cc2OCCn2cc(COc3cc(Cl)ccc3Oc3ccc(Cl)cc3Cl)nn2)c(Cl)c1` are 4.9, 105 µM, 4.67, 4.66 and 0.97.
Turning to `Clc1ccc(Oc2ccc(Cl)cc2OCCCOc2cc(Cl)ccc2Oc2ccc(Cl)cc2Cl)c(Cl)c1`, the selectivity ratio in data set [2] worked out at 2.6. In data set [3], the CC50 at 48 h was 81.5 µM. The negative-log IC50 (pIC50) was 4.51 in data set [4] and 4.56 in [6]. Also, the Ratio IC50 in [5] amounted to 1.11.
In the same order, the values of `Clc1ccc(Oc2ccc(Cl)cc2OCCCCCCOc2cc(Cl)ccc2Oc2ccc(Cl)cc2Cl)c(Cl)c1` are 3.1, 63.3 µM, 4.69, 4.67 and 0.95.
In the same order, the values of `Clc1ccc(Oc2ccc(Cl)cc2OCCCCCOc2cc(Cl)ccc2Oc2ccc(Cl)cc2Cl)c(Cl)c1` are 2, 70.2 µM, 4.46, 4.58 and 1.31.
Turning to `Clc1ccc(Oc2ccc(Cl)cc2OCCCCn2cc(COc3cc(Cl)ccc3Oc3ccc(Cl)cc3Cl)nn2)c(Cl)c1`, the selectivity ratio in data set [2] was found to be 3.5. In addition, in [3], the CC50 at 48 h came out at 76.5 µM. Further, the pIC50 in data set [4] is 4.65; in data set [6], 4.68. For the same compound, in data set [5], the Ratio IC50 stood at 1.06.
In the same order, the values of `O=[N+]([O-])c1cc(Oc2ccc(Cl)cc2Cl)c(OCc2cn(CCOc3cc(Cl)ccc3Oc3ccc(Cl)cc3Cl)nn2)cc1Cl` are 3.6, 91.8 µM, 4.54, 4.53 and 0.95.
In the same order, the values of `Clc1ccc(Oc2ccc(Cl)cc2OCCCCCn2cc(COc3cc(Cl)ccc3Oc3ccc(Cl)cc3Cl)nn2)c(Cl)c1` are 2.6, 64.6 µM, 4.60, 4.71 and 1.3.
In the case of `CCN(CC)CCCC(C)Nc1ccnc2cc(Cl)ccc12` (configuration not stated) [CHLOROQUINE], in [3], the CC50 at 48 h is greater than 100 µM.
With `N#Cc1ccc(Oc2ccc(Cl)cc2Cl)c(O)c1`, the negative-log IC50 (pIC50) in [7] was 7.31.
As for `Clc1ccc(Oc2ccc(Cl)cc2OCCCCCCn2cc(COc3cc(Cl)ccc3Oc3ccc(Cl)cc3Cl)nn2)c(Cl)c1`, the selectivity ratio in [2] stood at 3.2. Also, in data set [3], the CC50 at 48 h stood at 104 µM. The pIC50 in [4] is 4.49; in [6], 4.51. For the same compound, the Ratio IC50 in data set [5] is 1.04.
In the same order, the values of `Oc1cc(Cl)c(NCc2cn(CCCCOc3cc(Cl)ccc3Oc3ccc(Cl)cc3Cl)nn2)cc1Oc1ccc(Cl)cc1Cl` are 3.3, 72.1 µM, 4.66, 4.62 and 0.9.
Take `O=[N+]([O-])c1cc(Oc2ccc(Cl)cc2Cl)c(OCc2cn(CCCCCCOc3cc(Cl)ccc3Oc3ccc(Cl)cc3Cl)nn2)cc1Cl`: the selectivity ratio in [2] amounted to 2.2. In addition, the CC50 at 48 h in data set [3] is 54.9 µM. For the same compound, the pIC50 is 4.60 in data set [4] and 4.58 in data set [6]. In addition, the Ratio IC50 in data set [5] was determined as 0.96.
Turning to `Clc1ccc(Oc2ccc(Cl)cc2OCCOc2cc(Cl)ccc2Oc2ccc(Cl)cc2Cl)c(Cl)c1`, the selectivity ratio in data set [2] amounted to 9.8. Further, in data set [3], the CC50 at 48 h stood at 90.9 µM. The pIC50 in data set [4] was 5.03; in data set [6] it was 4.92. The log K is 6.4 in data set [8] and 6.58 in data set [9]. Also, the Ratio IC50 in data set [5] is 0.77.
Consider `O=[N+]([O-])c1cc(Oc2ccc(Cl)cc2Cl)c(OCc2cn(CCCCOc3cc(Cl)ccc3Oc3ccc(Cl)cc3Cl)nn2)cc1Cl`, for which, in [2], the selectivity ratio was 3.3. In data set [3], the CC50 at 48 h turned out to be 83.9 µM. Besides, the pIC50 in [4] is 4.59; in data set [6], 4.48. Besides, the Ratio IC50 in [5] was determined as 0.77.
In the same order, the values of `Clc1ccc(Oc2ccc(Cl)cc2OCCCn2cc(COc3cc(Cl)ccc3Oc3ccc(Cl)cc3Cl)nn2)c(Cl)c1` are 4.2, 103 µM, 4.61, 4.68 and 1.17.
In the same order, the values of `Oc1cc(Cl)c(NCc2cn(CCOc3cc(Cl)ccc3Oc3ccc(Cl)cc3Cl)nn2)cc1Oc1ccc(Cl)cc1Cl` are 4.5, 99.3 µM, 4.65, 4.77 and 1.29.
On to `C=C[C@H]1CN2CC[C@H]1C[C@H]2[C@H](O)c1ccnc2ccc(OC)cc12` [QUININE], for which the pIC50 in [4] was 6.35; in data set [6], 6.92. The Ratio IC50 in data set [5] stood at 3.75.
In the case of `Clc1ccc(Oc2ccc(Cl)cc2OCCCCOc2cc(Cl)ccc2Oc2ccc(Cl)cc2Cl)c(Cl)c1`, the selectivity ratio in [2] came out at 4.5. The CC50 at 48 h in [3] came to 99.7 µM. Also, the pIC50 in [4] is 4.65; in data set [6] it was 4.62. Moreover, the Ratio IC50 in data set [5] is 0.93.
In the same order, the values of `O=[N+]([O-])c1cc(Oc2ccc(Cl)cc2Cl)c(OCc2cn(CCCCCOc3cc(Cl)ccc3Oc3ccc(Cl)cc3Cl)nn2)cc1Cl` are 3.8, 116 µM, 4.51, 4.55 and 1.08.
Take `CCNCc1cc(Nc2ccnc3cc(Cl)ccc23)ccc1O` [DESETHYL AMODIAQUINE]: the selectivity ratio in data set [2] came out at 725. For the same compound, the CC50 at 48 h in [3] stood at 87 µM. Further, the Ratio IC50 in data set [5] is 6.
Turning to `Oc1cc(Cl)c(NCc2cn(CCCCCOc3cc(Cl)ccc3Oc3ccc(Cl)cc3Cl)nn2)cc1Oc1ccc(Cl)cc1Cl`, in data set [2], the selectivity ratio was found to be 3.8. Also, in data set [3], the CC50 at 48 h was 75 µM. Also, the pIC50 was 4.70 in data set [4] and 4.56 in [6]. Besides, the Ratio IC50 in [5] was determined as 0.72.
As to `Oc1cc(Cl)c(NCc2cn(CCCOc3cc(Cl)ccc3Oc3ccc(Cl)cc3Cl)nn2)cc1Oc1ccc(Cl)cc1Cl`, in [2], the selectivity ratio turned out to be 7. In addition, the cytotoxic concentration (CC50) at 48 h in data set [3] stood at 76.8 µM. For the same compound, the pIC50 was 4.96 in [4] and 4.68 in [6]. Further, the log K in data set [8] stood at 5.17; in [9] it was 6.3. Besides, the Ratio IC50 in data set [5] was found to be 0.52.
Consider `C=C[C@H]1C[N@@]2CC[C@H]1C[C@H]2[C@H](O)c1ccnc2ccc(OC)cc12` [QUININE], for which the selectivity ratio in data set [2] was greater than 222. The CC50 at 48 h in data set [3] is greater than 100 µM.
As to `Oc1cc(Cl)ccc1Oc1ccc(Cl)cc1Cl`, the values for the log K in data set [8] and in [9] were 5.8 and 6.16, respectively.
